Test results reported in PubChem BioAssay (NCI).
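Values below derive from 48-hour exposures of cells grown in 96-well plates, with endpoints linearly interpolated between the two concentrations bracketing the appropriate inhibition level. TGI: concentration producing complete growth inhibition.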

Tests used:
Assay in all cases: growth of human tumour cells (NCI), 48 h
786-0 renal = tested on: 786-0 renal
A498 renal = tested on: A498 renal
A549 NSCLC = tested on: A549 NSCLC
ACHN renal = tested on: ACHN renal
CAKI-1 renal = tested on: CAKI-1 renal
COLO 205 colon = tested on: COLO 205 colon
DLD-1 colon = tested on: DLD-1 colon
DMS 114 small cell lung = tested on: DMS 114 small cell lung
DMS 273 small cell lung = tested on: DMS 273 small cell lung
EKVX NSCLC = tested on: EKVX NSCLC
HCC-2998 colon = tested on: HCC-2998 colon
HCT-116 colon = tested on: HCT-116 colon
HCT-15 colon = tested on: HCT-15 colon
HOP-18 NSCLC = tested on: HOP-18 NSCLC
HOP-62 NSCLC = tested on: HOP-62 NSCLC
HOP-92 NSCLC = tested on: HOP-92 NSCLC
HT29 colon = tested on: HT29 colon
IGROV1 ovarian = tested on: IGROV1 ovarian
KM20L2 colon = tested on: KM20L2 colon
LOX IMVI melanoma = tested on: LOX IMVI melanoma
LXFL 529 NSCLC = tested on: LXFL 529 NSCLC
M14 melanoma = tested on: M14 melanoma
M19-MEL melanoma = tested on: M19-MEL melanoma
MALME-3M melanoma = tested on: MALME-3M melanoma
MOLT-4 leukemia = tested on: MOLT-4 leukemia
NCI-H226 lung = tested on: NCI-H226 lung
NCI-H460 lung = tested on: NCI-H460 lung
NCI-H522 lung = tested on: NCI-H522 lung
OVCAR-3 ovarian = tested on: OVCAR-3 ovarian
OVCAR-5 ovarian = tested on: OVCAR-5 ovarian
OVCAR-8 ovarian = tested on: OVCAR-8 ovarian
RPMI-8226 leukemia = tested on: RPMI-8226 leukemia
RXF 393 renal = tested on: RXF 393 renal
SF-268 CNS = tested on: SF-268 CNS
SF-295 CNS = tested on: SF-295 CNS
SF-539 CNS = tested on: SF-539 CNS
SK-MEL-2 melanoma = tested on: SK-MEL-2 melanoma
SK-MEL-28 melanoma = tested on: SK-MEL-28 melanoma
SK-MEL-5 melanoma = tested on: SK-MEL-5 melanoma
SK-OV-3 ovarian = tested on: SK-OV-3 ovarian
SN12C renal = tested on: SN12C renal
SNB-75 CNS = tested on: SNB-75 CNS
SNB-78 CNS = tested on: SNB-78 CNS
SR leukemia = tested on: SR leukemia
SW-620 colon = tested on: SW-620 colon
TK-10 renal = tested on: TK-10 renal
U251 CNS = tested on: U251 CNS
UACC-62 melanoma = tested on: UACC-62 melanoma
UO-31 renal = tested on: UO-31 renal
CCRF-CEM leukemia = tested on: CCRF-CEM leukemia
HL-60(TB) leukemia = tested on: HL-60(TB) leukemia
K-562 leukemia = tested on: K-562 leukemia
KM12 colon = tested on: KM12 colon
NCI-H23 lung = tested on: NCI-H23 lung
OVCAR-4 ovarian = tested on: OVCAR-4 ovarian
SNB-19 CNS = tested on: SNB-19 CNS

CCOC(=O)c1c(-c2[nH]c(C(=O)OCc3ccccc3)c(C)c2C(=O)OCC)[nH]c(C(=O)OCc2ccccc2)c1C
TGI (786-0 renal): > 100 µM
TGI (A498 renal): > 100 µM
TGI (A549 NSCLC): > 100 µM
TGI (ACHN renal): > 100 µM
TGI (CAKI-1 renal): > 100 µM
TGI (COLO 205 colon): > 100 µM
TGI (DLD-1 colon): > 100 µM
TGI (DMS 114 small cell lung): > 100 µM
TGI (DMS 273 small cell lung): > 100 µM
TGI (EKVX NSCLC): > 100 µM
TGI (HCC-2998 colon): > 100 µM
TGI (HCT-116 colon): > 100 µM
TGI (HCT-15 colon): > 100 µM
TGI (HOP-18 NSCLC): > 100 µM
TGI (HOP-62 NSCLC): > 100 µM
TGI (HOP-92 NSCLC): > 100 µM
TGI (HT29 colon): > 100 µM
TGI (IGROV1 ovarian): > 100 µM
TGI (KM20L2 colon): > 100 µM
TGI (LOX IMVI melanoma): > 100 µM
TGI (LXFL 529 NSCLC): > 100 µM
TGI (M14 melanoma): > 100 µM
TGI (M19-MEL melanoma): > 100 µM
TGI (MALME-3M melanoma): > 100 µM
TGI (MOLT-4 leukemia): > 100 µM
TGI (NCI-H226 lung): > 100 µM
TGI (NCI-H460 lung): > 100 µM
TGI (NCI-H522 lung): > 100 µM
TGI (OVCAR-3 ovarian): > 100 µM
TGI (OVCAR-5 ovarian): > 100 µM
TGI (OVCAR-8 ovarian): > 100 µM
TGI (RPMI-8226 leukemia): > 100 µM
TGI (RXF 393 renal): 86.2 µM
TGI (SF-268 CNS): > 100 µM
TGI (SF-295 CNS): > 100 µM
TGI (SF-539 CNS): > 100 µM
TGI (SK-MEL-2 melanoma): > 100 µM
TGI (SK-MEL-28 melanoma): > 100 µM
TGI (SK-MEL-5 melanoma): > 100 µM
TGI (SK-OV-3 ovarian): > 100 µM
TGI (SN12C renal): > 100 µM
TGI (SNB-75 CNS): 77.2 µM
TGI (SNB-78 CNS): > 100 µM
TGI (SR leukemia): > 100 µM
TGI (SW-620 colon): > 100 µM
TGI (TK-10 renal): > 100 µM
TGI (U251 CNS): > 100 µM
TGI (UACC-62 melanoma): > 100 µM
TGI (UO-31 renal): > 100 µM

OCCc1cnco1
TGI (786-0 renal): > 100 µM
TGI (A549 NSCLC): > 100 µM
TGI (CCRF-CEM leukemia): > 100 µM
TGI (COLO 205 colon): > 100 µM
TGI (DLD-1 colon): > 100 µM
TGI (DMS 114 small cell lung): > 100 µM
TGI (DMS 273 small cell lung): > 100 µM
TGI (EKVX NSCLC): > 100 µM
TGI (HCC-2998 colon): > 100 µM
TGI (HCT-116 colon): > 100 µM
TGI (HL-60(TB) leukemia): > 100 µM
TGI (HOP-18 NSCLC): > 100 µM
TGI (HOP-62 NSCLC): > 100 µM
TGI (HT29 colon): > 100 µM
TGI (IGROV1 ovarian): > 100 µM
TGI (K-562 leukemia): > 100 µM
TGI (KM12 colon): > 100 µM
TGI (KM20L2 colon): > 100 µM
TGI (LOX IMVI melanoma): > 100 µM
TGI (LXFL 529 NSCLC): > 100 µM
TGI (M14 melanoma): > 100 µM
TGI (M19-MEL melanoma): > 100 µM
TGI (MOLT-4 leukemia): > 100 µM
TGI (NCI-H226 lung): > 100 µM
TGI (NCI-H23 lung): > 100 µM
TGI (NCI-H460 lung): > 100 µM
TGI (NCI-H522 lung): > 100 µM
TGI (OVCAR-3 ovarian): > 100 µM
TGI (OVCAR-4 ovarian): > 100 µM
TGI (OVCAR-8 ovarian): > 100 µM
TGI (RPMI-8226 leukemia): > 100 µM
TGI (RXF 393 renal): > 100 µM
TGI (SF-268 CNS): > 100 µM
TGI (SF-295 CNS): > 100 µM
TGI (SF-539 CNS): > 100 µM
TGI (SK-MEL-28 melanoma): > 100 µM
TGI (SK-MEL-5 melanoma): > 100 µM
TGI (SK-OV-3 ovarian): > 100 µM
TGI (SN12C renal): > 100 µM
TGI (SNB-19 CNS): > 100 µM
TGI (SNB-75 CNS): > 100 µM
TGI (SNB-78 CNS): > 100 µM
TGI (SW-620 colon): > 100 µM
TGI (TK-10 renal): > 100 µM
TGI (U251 CNS): > 100 µM
TGI (UACC-62 melanoma): > 100 µM
